The numbers were not newly measured in article PMC4508061, “Selectivity Profiling and Biological Activity of Novel β-Carbolines as Potent and Selective DYRK1 Kinase Inhibitors” (PLoS ONE, 2015), which cites them from elsewhere.

Common to all, as to settings: 5 μM; cited from earlier work
One series concerns the target T1, DYRK3 (Homo sapiens, UniProt O43781).
T1 construct: purchased ProQinase (Freiburg, Germany)
T1 sequence (O43781 1-588): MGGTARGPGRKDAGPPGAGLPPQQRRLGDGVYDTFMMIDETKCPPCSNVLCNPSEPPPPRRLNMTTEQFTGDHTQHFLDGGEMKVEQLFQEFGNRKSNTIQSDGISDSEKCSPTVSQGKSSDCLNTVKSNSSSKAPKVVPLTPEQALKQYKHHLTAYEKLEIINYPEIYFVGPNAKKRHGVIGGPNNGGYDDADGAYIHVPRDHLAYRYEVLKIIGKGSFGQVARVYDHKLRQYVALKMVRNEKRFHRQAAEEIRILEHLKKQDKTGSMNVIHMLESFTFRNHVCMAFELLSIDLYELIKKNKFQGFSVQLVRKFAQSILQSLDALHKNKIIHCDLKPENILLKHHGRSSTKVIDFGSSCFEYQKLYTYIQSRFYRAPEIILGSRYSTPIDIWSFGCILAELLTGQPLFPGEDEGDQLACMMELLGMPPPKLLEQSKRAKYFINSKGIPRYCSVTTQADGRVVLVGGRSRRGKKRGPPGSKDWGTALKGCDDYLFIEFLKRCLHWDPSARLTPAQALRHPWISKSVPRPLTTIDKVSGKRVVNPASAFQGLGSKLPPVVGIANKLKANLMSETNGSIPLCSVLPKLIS

The target in another series is T2, HIPK4 (Homo sapiens, UniProt Q8NE63).
T2 sequence (Q8NE63 1-616): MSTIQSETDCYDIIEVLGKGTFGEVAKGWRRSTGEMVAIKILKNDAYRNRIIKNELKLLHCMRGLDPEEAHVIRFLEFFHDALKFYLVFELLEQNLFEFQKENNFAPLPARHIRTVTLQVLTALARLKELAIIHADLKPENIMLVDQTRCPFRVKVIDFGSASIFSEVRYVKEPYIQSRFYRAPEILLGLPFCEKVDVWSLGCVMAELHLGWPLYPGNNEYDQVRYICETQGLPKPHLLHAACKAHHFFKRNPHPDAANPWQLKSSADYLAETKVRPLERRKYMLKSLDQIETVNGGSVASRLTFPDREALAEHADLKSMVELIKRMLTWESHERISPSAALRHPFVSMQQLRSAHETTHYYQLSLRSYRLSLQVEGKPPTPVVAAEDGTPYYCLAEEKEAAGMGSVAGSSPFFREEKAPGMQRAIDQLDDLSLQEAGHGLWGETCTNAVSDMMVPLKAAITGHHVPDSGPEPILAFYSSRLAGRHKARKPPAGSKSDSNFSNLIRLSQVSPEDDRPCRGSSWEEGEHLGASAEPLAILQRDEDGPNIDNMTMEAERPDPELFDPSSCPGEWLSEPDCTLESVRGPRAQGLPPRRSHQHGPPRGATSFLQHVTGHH
Further details: purchased ProQinase (Freiburg, Germany).

In the next series the target is PIM1 (Homo sapiens, UniProt P11309). Also on record: purchased ProQinase (Freiburg, Germany).
In the next series the target is T3, DYRK2 (Homo sapiens, UniProt Q92630).
T3 construct: purchased ProQinase (Freiburg, Germany)
T3 sequence (Q92630 1-601): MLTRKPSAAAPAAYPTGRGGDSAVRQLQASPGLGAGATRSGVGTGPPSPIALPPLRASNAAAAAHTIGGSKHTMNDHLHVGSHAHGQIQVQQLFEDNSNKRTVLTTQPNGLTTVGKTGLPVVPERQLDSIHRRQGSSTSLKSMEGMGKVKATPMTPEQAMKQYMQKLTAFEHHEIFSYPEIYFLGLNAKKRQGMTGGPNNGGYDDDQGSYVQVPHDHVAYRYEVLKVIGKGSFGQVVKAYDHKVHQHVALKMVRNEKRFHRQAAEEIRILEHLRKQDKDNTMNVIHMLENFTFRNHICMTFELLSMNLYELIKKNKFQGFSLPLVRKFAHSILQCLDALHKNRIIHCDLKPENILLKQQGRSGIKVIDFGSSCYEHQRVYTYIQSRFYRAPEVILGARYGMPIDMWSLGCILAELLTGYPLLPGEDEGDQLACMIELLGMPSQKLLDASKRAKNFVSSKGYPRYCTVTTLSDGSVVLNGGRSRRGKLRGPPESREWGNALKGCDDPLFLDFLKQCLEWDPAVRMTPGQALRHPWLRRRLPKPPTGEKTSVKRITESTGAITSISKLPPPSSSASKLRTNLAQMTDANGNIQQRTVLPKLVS

Another series has as its target T4, DYRK4 (Homo sapiens, UniProt Q9NR20).
T4 construct: purchased ProQinase (Freiburg, Germany)

The target in the next series is PIM2 (Homo sapiens, UniProt Q9P1W9). Also on record: purchased ProQinase (Freiburg, Germany).
For the next series, the system named is DYRK1A.
The next series addresses T5, CLK2 (Homo sapiens, UniProt P49760).
T5 construct: purchased ProQinase (Freiburg, Germany)

The target in the next series is T6, CLK3 (Homo sapiens, UniProt P49761).
T6 construct: purchased ProQinase (Freiburg, Germany)

The next series deals with CLK1 (Homo sapiens, UniProt P49759). Further details: purchased ProQinase (Freiburg, Germany).
The target of the next series is DYRK1B (Homo sapiens, UniProt Q9Y463). Further details: purchased ProQinase (Freiburg, Germany).
A further series deals with HIPK1 (Homo sapiens, UniProt Q86Z02). Further details: purchased ProQinase (Freiburg, Germany).

Each structure is given as a SMILES string.

T5 sequence (P49760 whole entry): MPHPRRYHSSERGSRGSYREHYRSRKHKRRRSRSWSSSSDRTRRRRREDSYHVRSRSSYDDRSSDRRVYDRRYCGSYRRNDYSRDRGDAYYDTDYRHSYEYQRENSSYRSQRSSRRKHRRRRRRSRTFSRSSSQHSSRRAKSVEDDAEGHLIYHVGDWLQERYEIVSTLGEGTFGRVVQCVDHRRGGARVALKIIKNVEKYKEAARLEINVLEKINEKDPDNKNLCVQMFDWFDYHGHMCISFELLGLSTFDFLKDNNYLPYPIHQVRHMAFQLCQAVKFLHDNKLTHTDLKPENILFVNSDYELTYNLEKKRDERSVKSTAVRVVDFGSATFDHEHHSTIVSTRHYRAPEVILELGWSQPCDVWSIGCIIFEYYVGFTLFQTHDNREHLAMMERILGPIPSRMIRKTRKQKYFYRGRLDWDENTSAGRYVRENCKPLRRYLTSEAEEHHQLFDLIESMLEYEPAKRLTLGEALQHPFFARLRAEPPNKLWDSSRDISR
T4 sequence (Q9NR20 whole entry): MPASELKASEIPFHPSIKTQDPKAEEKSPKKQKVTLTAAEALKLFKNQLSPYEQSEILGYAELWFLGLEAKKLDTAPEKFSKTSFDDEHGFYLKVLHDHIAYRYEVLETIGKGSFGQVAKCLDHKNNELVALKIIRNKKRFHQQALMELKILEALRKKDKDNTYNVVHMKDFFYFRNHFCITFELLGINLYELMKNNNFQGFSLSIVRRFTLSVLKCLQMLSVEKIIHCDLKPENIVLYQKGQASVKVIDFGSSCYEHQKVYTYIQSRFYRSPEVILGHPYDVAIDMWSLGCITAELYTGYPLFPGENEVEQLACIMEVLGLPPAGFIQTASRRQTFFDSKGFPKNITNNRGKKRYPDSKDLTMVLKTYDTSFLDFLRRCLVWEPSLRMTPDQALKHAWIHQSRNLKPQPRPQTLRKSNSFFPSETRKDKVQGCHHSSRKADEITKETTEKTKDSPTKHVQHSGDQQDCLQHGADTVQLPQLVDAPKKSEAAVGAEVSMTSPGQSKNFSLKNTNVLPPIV
Chain of CLK1 (P49759 whole entry): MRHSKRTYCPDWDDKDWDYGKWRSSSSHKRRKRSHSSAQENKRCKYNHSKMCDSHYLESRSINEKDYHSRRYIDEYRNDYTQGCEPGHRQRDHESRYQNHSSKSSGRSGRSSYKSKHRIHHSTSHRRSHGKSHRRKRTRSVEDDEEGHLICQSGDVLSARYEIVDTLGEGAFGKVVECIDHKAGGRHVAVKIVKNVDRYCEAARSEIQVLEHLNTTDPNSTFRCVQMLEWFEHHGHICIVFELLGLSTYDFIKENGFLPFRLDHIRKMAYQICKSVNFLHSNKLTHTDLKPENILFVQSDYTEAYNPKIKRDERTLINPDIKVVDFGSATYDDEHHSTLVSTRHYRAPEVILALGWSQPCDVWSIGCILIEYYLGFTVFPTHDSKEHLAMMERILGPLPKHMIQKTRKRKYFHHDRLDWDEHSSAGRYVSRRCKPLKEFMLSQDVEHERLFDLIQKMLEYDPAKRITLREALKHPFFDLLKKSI
Chain of DYRK1B (Q9Y463 whole entry): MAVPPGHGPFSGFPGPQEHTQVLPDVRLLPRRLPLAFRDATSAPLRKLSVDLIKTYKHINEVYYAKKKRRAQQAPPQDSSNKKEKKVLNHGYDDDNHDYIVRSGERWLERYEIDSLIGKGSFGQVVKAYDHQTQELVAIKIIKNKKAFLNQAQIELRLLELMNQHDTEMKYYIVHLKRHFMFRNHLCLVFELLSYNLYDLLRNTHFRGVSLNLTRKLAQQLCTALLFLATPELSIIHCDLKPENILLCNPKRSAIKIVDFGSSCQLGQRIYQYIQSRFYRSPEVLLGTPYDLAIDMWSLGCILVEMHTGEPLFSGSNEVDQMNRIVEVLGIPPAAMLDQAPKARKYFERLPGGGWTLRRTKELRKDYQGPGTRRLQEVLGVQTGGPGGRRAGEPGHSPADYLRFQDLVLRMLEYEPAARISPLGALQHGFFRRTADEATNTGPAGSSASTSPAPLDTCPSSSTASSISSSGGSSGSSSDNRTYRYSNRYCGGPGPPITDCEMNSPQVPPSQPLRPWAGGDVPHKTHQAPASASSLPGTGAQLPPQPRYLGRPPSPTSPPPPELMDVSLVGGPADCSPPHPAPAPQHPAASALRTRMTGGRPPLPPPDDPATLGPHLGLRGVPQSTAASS
Chain of HIPK1 (Q86Z02 whole entry): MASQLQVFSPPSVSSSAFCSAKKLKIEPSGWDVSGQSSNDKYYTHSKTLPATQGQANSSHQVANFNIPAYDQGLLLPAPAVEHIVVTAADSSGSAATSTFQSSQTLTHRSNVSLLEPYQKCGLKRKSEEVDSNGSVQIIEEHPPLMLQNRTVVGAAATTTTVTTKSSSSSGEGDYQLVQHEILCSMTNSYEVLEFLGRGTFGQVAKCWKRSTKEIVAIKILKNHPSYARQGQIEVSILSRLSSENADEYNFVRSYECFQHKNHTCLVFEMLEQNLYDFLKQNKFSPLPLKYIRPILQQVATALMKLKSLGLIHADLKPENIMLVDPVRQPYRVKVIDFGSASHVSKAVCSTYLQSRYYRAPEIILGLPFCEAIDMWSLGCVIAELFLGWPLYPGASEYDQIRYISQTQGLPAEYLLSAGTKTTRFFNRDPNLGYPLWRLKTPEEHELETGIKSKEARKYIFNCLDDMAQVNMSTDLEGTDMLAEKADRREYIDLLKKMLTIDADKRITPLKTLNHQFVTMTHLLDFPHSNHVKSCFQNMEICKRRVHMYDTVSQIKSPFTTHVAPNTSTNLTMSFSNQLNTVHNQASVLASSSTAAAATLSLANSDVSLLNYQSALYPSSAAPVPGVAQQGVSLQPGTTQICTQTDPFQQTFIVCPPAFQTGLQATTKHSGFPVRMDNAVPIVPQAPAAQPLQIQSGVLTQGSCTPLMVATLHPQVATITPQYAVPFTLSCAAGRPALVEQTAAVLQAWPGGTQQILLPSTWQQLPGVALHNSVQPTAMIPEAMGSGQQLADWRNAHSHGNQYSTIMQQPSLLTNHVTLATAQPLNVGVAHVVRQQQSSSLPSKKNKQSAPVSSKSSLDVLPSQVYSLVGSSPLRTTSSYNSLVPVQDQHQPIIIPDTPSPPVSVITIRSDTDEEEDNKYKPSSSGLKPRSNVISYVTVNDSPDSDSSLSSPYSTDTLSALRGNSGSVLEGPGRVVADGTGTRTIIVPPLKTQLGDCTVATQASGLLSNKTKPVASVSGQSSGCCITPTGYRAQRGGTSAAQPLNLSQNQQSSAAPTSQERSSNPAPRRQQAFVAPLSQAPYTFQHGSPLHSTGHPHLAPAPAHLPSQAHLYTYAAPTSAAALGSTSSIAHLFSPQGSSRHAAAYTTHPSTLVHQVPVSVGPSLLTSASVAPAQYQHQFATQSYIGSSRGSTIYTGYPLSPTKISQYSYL
Chain of PIM1 (P11309 whole entry): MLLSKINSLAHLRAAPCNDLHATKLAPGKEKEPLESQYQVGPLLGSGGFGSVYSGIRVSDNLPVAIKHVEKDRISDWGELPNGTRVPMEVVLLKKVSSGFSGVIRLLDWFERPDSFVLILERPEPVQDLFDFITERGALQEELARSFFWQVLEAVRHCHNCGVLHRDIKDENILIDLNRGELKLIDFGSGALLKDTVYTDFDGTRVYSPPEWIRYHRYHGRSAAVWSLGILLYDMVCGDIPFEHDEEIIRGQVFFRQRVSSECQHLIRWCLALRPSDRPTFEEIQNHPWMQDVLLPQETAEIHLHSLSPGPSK
Chain of PIM2 (Q9P1W9 whole entry): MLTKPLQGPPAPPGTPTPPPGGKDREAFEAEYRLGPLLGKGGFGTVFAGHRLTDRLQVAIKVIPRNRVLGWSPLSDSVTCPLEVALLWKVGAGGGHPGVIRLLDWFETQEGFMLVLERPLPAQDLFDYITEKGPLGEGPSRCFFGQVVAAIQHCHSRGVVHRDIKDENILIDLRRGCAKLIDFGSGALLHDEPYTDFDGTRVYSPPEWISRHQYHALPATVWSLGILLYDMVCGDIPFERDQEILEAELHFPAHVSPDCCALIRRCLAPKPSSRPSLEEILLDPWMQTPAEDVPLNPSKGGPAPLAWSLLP
T6 sequence (P49761 whole entry): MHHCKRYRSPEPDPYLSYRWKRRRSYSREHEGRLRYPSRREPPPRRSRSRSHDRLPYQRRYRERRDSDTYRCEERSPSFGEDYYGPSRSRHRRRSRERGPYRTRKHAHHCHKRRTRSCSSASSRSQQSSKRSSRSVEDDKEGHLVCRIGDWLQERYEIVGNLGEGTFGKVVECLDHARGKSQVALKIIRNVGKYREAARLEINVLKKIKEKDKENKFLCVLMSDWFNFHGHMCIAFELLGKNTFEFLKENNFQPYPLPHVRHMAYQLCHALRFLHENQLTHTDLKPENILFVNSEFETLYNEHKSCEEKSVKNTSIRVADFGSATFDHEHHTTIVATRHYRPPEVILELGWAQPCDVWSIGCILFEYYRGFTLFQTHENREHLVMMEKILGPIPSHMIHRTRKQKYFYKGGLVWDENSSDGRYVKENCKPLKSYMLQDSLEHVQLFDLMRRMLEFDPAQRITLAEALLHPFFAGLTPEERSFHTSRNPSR

Regarding `c1ccc(-c2cc(-c3cncs3)cs2)cc1` [Thiophene 29], the “Residual activity (% of control)” value on DYRK3 was 34 % of control; on HIPK4 it was 93 % of control; on PIM1 it was 78 % of control; at DYRK2, 7 % of control; at DYRK4, 87 % of control; at PIM2, 93 % of control. Also, the “Residual activity (% of control)” value in the series on DYRK1A is 10 % of control; at CLK2, 28 % of control; at CLK3, 88 % of control; on CLK1, 4 % of control; at DYRK1B it was 0 % of control; at HIPK1, 96 % of control.
